SMILES strings stand for the structures.

The subject of series [1] is Staphylococcus aureus Oxford. The series is described as follows: conventional MIC assay, Staphylococcus aureus Oxford. In kind it is cell-based. How it is done: (§1) Compounds of the present invention were assessed for anti-bacterial activity in a conventional MIC assay against a range of pathogenic organisms.
The test system of series [2] is Streptococcus pneumoniae 1629. The series is described as follows: conventional MIC assay, Streptococcus pneumoniae 1629. It counts as cell-based. How it is done: as §1
Series [3] relates to Moraxella catarrhalis Ravasio. Briefly: conventional MIC assay, Moraxella catarrhalis Ravasio. It counts as cell-based. How it is done: as §1
Series [4] has as its system Haemophilius influenzae Q1. The series is described as follows: conventional MIC assay, Haemophilius influenzae Q1. In kind it is cell-based. How it is done:
as §1

Series [5] can be described thus: intrinsic clearance in human liver microsome preparations. In kind it is in vitro ADME. The following applies: in the presence of human liver microsomes; R1=2-amino-4-pyridyl, R2=vinyl. (In general: Liver microsomes are a subcellular fraction often used to study metabolism.)

For the compound `CC[C@]1(C)CC(OC(=O)NC(=O)c2cnc(N)s2)[C@]2(C)C(C)CC[C@]3(C[C@H](O)C(=O)C23)[C@@H](C)[C@@H]1O` (stereo partly drawn) [Example 35, (2-Aminothiazol-5-ylcarbonyl)carbamic Acid 19,20-dihydro-2-(S)-hydroxymutilin 14-ester], the MIC in series [1], in series [2], in series [3] and in series [4] was not above 4 µg/mL throughout.

As to `CC[C@]1(C)C[C@@H](OC(=O)NC(=O)c2cccc(N)n2)[C@]2(C)C(C)CC[C@]3(C[C@H](O)C(=O)C32)[C@@H](C)[C@@H]1O` (stereo partly drawn) [Example 32, (6-aminopyridin-2-ylcarbonyl)carbamic Acid 19,20-dihydro-2-(S)-hydroxymutilin 14-ester], the MIC in series [1], in series [2], in series [3] and in series [4] was not above 4 µg/mL in each case.

Turning to `C=C[C@]1(C)C[C@@H](OC(=O)NC(=O)c2ccc(N)nc2)[C@]2(C)C(C)CC[C@]3(C[C@H](O)C(=O)C32)[C@@H](C)[C@@H]1O` (stereo partly shown) [Example 1], the MIC in series [1], in series [2], in series [3] and in series [4] was not above 4 µg/mL in each case.

With `C=C[C@]1(C)C[C@@H](OC(=O)NC(=O)c2cc(OC)nc(N)n2)[C@]2(C)C(C)CC[C@]3(C[C@H](O)C(=O)C32)[C@@H](C)[C@@H]1O` (stereo partly drawn) [Example 23, (2-Amino-6-methoxypyrimidin-4-ylcarbonyl)carbamic Acid 2-(S)-hydroxymutilin 14-ester], the MIC in series [1], in series [2], in series [3] and in series [4] was not above 4 µg/mL in each case.

`CC[C@]1(C)CC(OC(=O)NC(=O)c2cnc(NC)nc2)[C@]2(C)C(C)CC[C@]3(C[C@H](O)C(=O)C23)[C@@H](C)[C@@H]1O` (stereo partly drawn) [Example 37, (2-Methylaminopyrimidin-5-ylcarbonyl)carbamic Acid 19,20-dihydro-2-(S)-hydroxymutilin 14-ester]: the MIC in series [1], in series [2], in series [3] and in series [4] was not above 4 µg/mL each time.

In the case of `CC[C@]1(C)CC(OC(=O)NC(=O)c2cnc3[nH]c(=O)cnc3c2)[C@]2(C)C(C)CC[C@]3(C[C@H](O)C(=O)C23)[C@@H](C)[C@@H]1O` (stereo partly drawn) [Example 34, (3-Oxo-3,4-dihydropyrido[2,3-b]pyrazin-7-ylcarbonyl)carbamic Acid 19,20-dihydro-2-(S)-hydroxymutilin 14-ester], the MIC in series [1], in series [2], in series [3] and in series [4] was not above 4 µg/mL throughout.

As for `CC[C@]1(C)CC(OC(=O)NC(=O)c2cnc(OC)nc2)[C@]2(C)C(C)CC[C@]3(C[C@H](O)C(=O)C23)[C@@H](C)[C@@H]1O` (stereo partly drawn) [Example 38, (2-Methoxypyrimidin-5-ylcarbonyl)carbamic Acid 19,20-dihydro-2-(S)-hydroxymutilin 14-ester], the MIC in series [1], in series [2], in series [3] and in series [4] was not above 4 µg/mL throughout.

As to `CC[C@]1(C)CC(OC(=O)NC(=O)c2ccc(N)nc2)[C@]2(C)C(C)CC[C@]3(C[C@H](O)C(=O)C23)[C@@H](C)[C@@H]1O` (stereo partly drawn) [Example 39, (6-Aminonicotinoyl)carbamic Acid 19,20-dihydro-2-(S)-hydroxymutilin 14-ester], the MIC in series [1], in series [2], in series [3] and in series [4] was not above 4 µg/mL each time.

For the compound `C=C[C@]1(C)C[C@@H](OC(=O)NC(=O)c2ccc(N)nn2)[C@]2(C)C(C)CC[C@]3(C[C@H](O)C(=O)C32)[C@@H](C)[C@@H]1O.Cl` (stereo partly drawn) [Example 27, (3-Amino-6-pyridazinylcarbonyl)carbamic Acid 2-(S)-hydroxymutilin 14-ester Hydrochloride], the MIC in series [1], in series [2], in series [3] and in series [4] was not above 4 µg/mL in each case.

Take `C=C[C@]1(C)C[C@@H](OC(=O)NC(=O)c2csc(C3CCN(CC(N)=O)CC3)n2)[C@]2(C)C(C)CC[C@]3(C[C@H](O)C(=O)C32)[C@@H](C)[C@@H]1O` (stereo partly drawn) [Example 30, [2-(1-Carboxamidomethylpiperidin-4-yl)thiazole-4-carbonyl]carbamic Acid 2-(S)-hydroxymutilin 14-ester]: the MIC in series [1], in series [2], in series [3] and in series [4] was not above 4 µg/mL in each case.

Regarding `CC[C@]1(C)CC(OC(=O)NC(=O)c2cnc(OC)c(N)c2)[C@]2(C)C(C)CC[C@]3(C[C@H](O)C(=O)C23)[C@@H](C)[C@@H]1O` (stereo partly drawn) [Example 36, (5-Amino-6-methoxynicotinoyl)carbamic Acid 19,20-dihydro-2-(S)-hydroxymutilin 14-ester], the MIC in series [1], in series [2], in series [3] and in series [4] was not above 4 µg/mL each time.

With `C=C[C@]1(C)C[C@@H](OC(=O)NC(=O)c2cnc(N)c([N+](=O)[O-])c2)[C@]2(C)C(C)CC[C@]3(C[C@H](O)C(=O)C32)[C@@H](C)[C@@H]1O` (stereo partly drawn) [Example 22, (6-Amino-5-nitronicotinoyl)carbamic Acid 2-(S)-hydroxymutilin 14-ester], the MIC in series [1], in series [2], in series [3] and in series [4] was not above 4 µg/mL in each case.

Take `C=C[C@]1(C)C[C@@H](OC(=O)NC(=O)c2ccnc(N)c2)[C@]2(C)C(C)CC[C@]3(C[C@H](O)C(=O)C32)[C@@H](C)[C@@H]1O` (stereo partly shown) [Example 2]: the “intrinsic clearance (CLi, a measure of rate of metabolism)” value in series [5] is 6.5 ml/min/g liver.
